Assay results reported in patent publication US8637511B2, “Aminopyrimidines useful as kinase inhibitors” (Vertex Pharmaceuticals Incorporated, priority 2005, dated 2014).
Like-named read-outs stand apart in the source and are kept apart here.

Target: T1, FLT-3 (Homo sapiens, UniProt P36888)
T1 sequence (P36888 27-993): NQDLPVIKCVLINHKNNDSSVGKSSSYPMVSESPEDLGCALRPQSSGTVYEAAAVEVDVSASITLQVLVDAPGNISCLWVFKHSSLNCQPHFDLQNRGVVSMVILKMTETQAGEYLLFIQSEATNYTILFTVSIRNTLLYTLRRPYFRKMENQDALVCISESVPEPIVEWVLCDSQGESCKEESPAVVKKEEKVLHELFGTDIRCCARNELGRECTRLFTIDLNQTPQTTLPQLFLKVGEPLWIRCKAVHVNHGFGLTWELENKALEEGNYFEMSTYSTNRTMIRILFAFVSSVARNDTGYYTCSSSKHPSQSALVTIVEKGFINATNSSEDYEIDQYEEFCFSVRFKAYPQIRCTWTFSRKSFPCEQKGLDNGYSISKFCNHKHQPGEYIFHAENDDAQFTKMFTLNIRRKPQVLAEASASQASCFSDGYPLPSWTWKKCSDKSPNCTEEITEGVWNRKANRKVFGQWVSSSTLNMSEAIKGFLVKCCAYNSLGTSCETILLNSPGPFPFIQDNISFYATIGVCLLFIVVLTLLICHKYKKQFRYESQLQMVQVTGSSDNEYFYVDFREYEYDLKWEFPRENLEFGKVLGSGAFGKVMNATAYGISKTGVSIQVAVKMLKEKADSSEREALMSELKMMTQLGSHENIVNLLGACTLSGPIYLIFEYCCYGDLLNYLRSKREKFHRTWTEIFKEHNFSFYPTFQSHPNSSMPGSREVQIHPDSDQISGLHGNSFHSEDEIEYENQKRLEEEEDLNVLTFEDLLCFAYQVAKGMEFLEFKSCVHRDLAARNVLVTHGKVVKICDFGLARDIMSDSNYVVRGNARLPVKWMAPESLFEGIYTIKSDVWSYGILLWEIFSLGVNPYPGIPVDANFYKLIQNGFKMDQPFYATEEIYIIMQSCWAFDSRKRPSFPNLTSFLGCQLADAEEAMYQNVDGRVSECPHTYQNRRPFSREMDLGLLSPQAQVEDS
Assay: FLT-3 inhibition assay, radiometric filter-binding
Format: biochemical
Method: This assay monitors the 33P incorporation into a substrate poly(Glu, Tyr) 4:1 (pE4Y). […] Final substrate concentrations in the assay were 90 μM ATP and 0.5 mg/ml pE4Y (both from Sigma Chemicals, St. Louis, Mo.). […] Reactions were carried out at room temperature.
Two assay solutions were prepared. Solution 1 contains 100 mM HEPES (pH 7.5), 10 mM MgCl2, 25 mM NaCl, 1 mg/ml pE4Y and […] (containing 0.3 mCi of [γ-33^P]ATP for each reaction). Solution 2 contains 100 mM HEPES (pH 7.5), 10 mM MgCl2, 25 mM NaCl, 2 mM DTT, 0.02% BSA and 3 nM FLT-3. The assay was run on a 96 well plate by mixing 50 μl each of Solution 1 and […] of the compounds of the present invention. The reaction was initiated with Solution 2. […] All of the reaction volume was then transferred to a filter plate and washed with 5% TCA by a Harvester 9600 from TOMTEC (Hamden, Conn.). The amount of ^33P incorporation into pE4y was analyzed by a Packard Top Count Microplate Scintillation Counter (Meriden, Conn.). The data was fitted using Prism software to get an IC50 or Ki.

SMILES | Ki [µM] | Ki (read-out: FLT-3 Ki value) [µM]
Cc1cc(Nc2cc(N3CCC3)nc(Sc3ccc(C(=O)NCc4ccccc4)cc3)n2)n[nH]1 [Compound 19] | 0.15 to 1 | –
Cc1cc(Nc2cc(N3CCC3)nc(Sc3ccc(C(=O)N4CCCC4)cc3)n2)n[nH]1 [Compound 22] | 0.05 to 0.15 | –
Cc1cc(Nc2cc(N3CCC3)nc(Sc3ccc(C(=O)NC4CCCC4)cc3)n2)n[nH]1 [Compound 23] | – | 0.15 to 1
Cc1cc(Nc2cc(N3CCC3)nc(Sc3ccc(C(=O)NCc4ccccc4Cl)cc3)n2)n[nH]1 [Compound 24] | 0.15 to 1 | –
Cc1cc(Nc2cc(N3CCC3)nc(Sc3ccc(C(=O)Nc4ccccc4Cl)cc3)n2)[nH]n1 [Compound 48] | 0.15 to 1 | –
CCCNC(=O)Nc1ccc(Sc2nc(Nc3cc(C)[nH]n3)cc(N3CCC3)n2)cc1 [Compound 73] | 0.05 to 0.15 | –
Cc1cc(Nc2cc(N3CCC3)nc(Sc3ccc(NC(=O)NCc4ccccc4)cc3)n2)n[nH]1 [Compound 74] | 0.05 to 0.15 | –
CCC(=O)Nc1ccc(Sc2nc(Nc3cc(C4CC4)n[nH]3)cc(N3CC(N4CCOCC4)C3)n2)cc1 [Compound 78] | ≤ 0.05 | –
CCC(=O)Nc1ccc(Sc2nc(Nc3cc(C)n[nH]3)cc(N3CC(O)(C(F)(F)F)C3)n2)cc1 [Compound 94] | ≤ 0.05 | –
CCC(=O)Nc1ccc(Sc2nc(Nc3cc(C)n[nH]3)cc(N3CC(C)(OC(C)C)C3)n2)cc1 [Compound 95] | 0.05 to 0.15 | –
CCC(=O)Nc1ccc(Sc2nc(Nc3cc(C)n[nH]3)cc(N3CC(C)(OC(C)(C)C)C3)n2)cc1 [Compound 96] | – | 0.05 to 0.15
Cc1cc(Nc2cc(N3CCC3)nc(Sc3ccc(N)cc3)n2)[nH]n1 [Compound 108] | – | ≤ 0.05
Cc1cc(Nc2cc(N3CCC3)nc(Sc3ccc(NC(=O)C4CC4(F)F)cc3)n2)[nH]n1 (stereo not shown) [Compound 112] | – | ≤ 0.05
Cc1cc(Nc2cc(N3CCC3)nc(Sc3ccc(NC(=O)C(C)(C)C)cc3)n2)[nH]n1 [Compound 114] | – | 0.15 to 1
Cc1cc(Nc2cc(N3CC(C)(O)C3)nc(Sc3ccc(NC(=O)c4ccccc4C(F)(F)F)cc3)n2)[nH]n1 [Compound 115] | 0.05 to 0.15 | –
COc1ccc(C(=O)Nc2ccc(Sc3nc(Nc4cc(C)n[nH]4)cc(N4CCC4)n3)cc2)cc1 [Compound 117] | – | 0.15 to 1
Cc1cc(Nc2cc(N3CCC3)nc(Sc3ccc(NC(=O)CCC(F)(F)F)cc3)n2)[nH]n1 [Compound 121] | – | 0.05 to 0.15
Cc1cc(Nc2cc(N3CCC3)nc(Sc3ccc(NC(=O)c4ccccc4N(C)C)cc3)n2)[nH]n1 [Compound 124] | – | 0.15 to 1
COC1CN(c2cc(Nc3cc(C)n[nH]3)nc(Sc3ccc(NC(=O)c4ccccc4C(F)(F)F)cc3)n2)C1 [Compound 126] | 0.05 to 0.15 | –
Cc1cc(Nc2cc(N3CCC3)nc(Sc3ccc(NC(=O)C(C)CC(F)(F)F)cc3)n2)[nH]n1 (stereo not shown) [Compound 127] | – | 0.15 to 1

SMILES | Ki [µM] | Ki (read-out: FLT-3 Ki value) [µM]
Cc1cc(Nc2cc(N3CC(O)(C4CC4)C3)nc(Sc3ccc4ccccc4c3)n2)n[nH]1 [Compound 131] | ≤ 0.05 | –
Cc1cc(Nc2cc(N3CCC3)nc(Oc3ccc(NC(=O)c4ccccc4C(F)(F)F)cc3)n2)[nH]n1 [Compound 134] | 0.05 to 0.15 | –
Cc1cc(Nc2cc(N3CCC3)nc(Sc3ccc(NC(=O)c4ccc(CN(C)C)cc4)cc3)n2)[nH]n1 [Compound 137] | – | 0.05 to 0.15
Cc1ccc(C(=O)Nc2ccc(Sc3nc(Nc4cc(C)n[nH]4)cc(N4CCC4)n3)cc2)cn1 [Compound 145] | – | 0.15 to 1
Cc1cc(Nc2cc(N3CCC3)nc(Sc3ccc(NC(=O)c4ccncc4C(F)(F)F)cc3)n2)[nH]n1 [Compound 146] | 0.15 to 1 | –
O=C(CC(F)(F)F)Nc1ccc(Sc2nc(Nc3cc[nH]n3)cc(N3CC(F)(C4CC4)C3)n2)cc1 [Compound 148] | 0.05 to 0.15 | –
Cc1cc(Nc2cc(N3CCC3)nc(Sc3ccc(NC(=O)c4cc(C)nc(Cl)c4)cc3)n2)[nH]n1 [Compound 149] | – | 0.15 to 1
Cc1cc(Nc2cc(N3CCC3)nc(Sc3ccc(NS(C)(=O)=O)cc3)n2)[nH]n1 [Compound 150] | – | ≤ 0.05
Cc1cc(Nc2cc(N3CCC3)nc(Sc3ccc(NC(=O)C(F)(F)F)cc3)n2)[nH]n1 [Compound 158] | – | 0.05 to 0.15
Cc1cc(Nc2cc(N3CC(N4CCCC4)C3)nc(Sc3ccc4ncccc4c3)n2)n[nH]1 [Compound 159] | ≤ 0.05 | –
Cc1cc(Nc2cc(N3CC(N4CC[C@H](F)C4)C3)nc(Sc3ccc4ncccc4c3)n2)n[nH]1 [Compound 160] | ≤ 0.05 | –
Cc1cc(Nc2cc(N3CC(F)(C4CC4)C3)nc(Sc3ccc(-c4ncc(C)o4)cc3)n2)[nH]n1 [Compound 175] | 0.15 to 1 | –
Cc1ccc2cc(Sc3nc(Nc4cc(C)[nH]n4)cc(N4CC(N5CCCC5)C4)n3)ccc2n1 [Compound 182] | 0.05 to 0.15 | –
CC(=O)Nc1cccc(Sc2nc(Nc3cc(C)n[nH]3)cc(N3CC(F)(C4CC4)C3)n2)c1 [Compound 188] | 0.05 to 0.15 | –
Cc1cc(Nc2cc(N3CC(F)(C4CC4)C3)nc(Sc3ccc4nc(C(F)(F)F)cn4c3)n2)[nH]n1 [Compound 190] | 0.15 to 1 | –
Cc1cc(Nc2cc(N3CC(N4CCOCC4)C3)nc(Sc3ccc(NC(=O)C4(C(F)(F)F)CC4)cc3)n2)[nH]n1 [Compound 191] | – | 0.15 to 1
Cc1ccc2cc(Sc3nc(Nc4cc(C)[nH]n4)cc(N4CC(C5CCC(F)C5)C4)n3)ccc2n1 (stereo not shown) [Compound 198] | 0.05 to 0.15 | –
Cc1cc(Nc2cc(N3CC(N4CCOCC4)C3)nc(Sc3ccc(NC(=O)CC(F)(F)F)cc3)n2)[nH]n1 [Compound 199] | ≤ 0.05 | –
Cc1cc(Nc2cc(N3CC(F)(C4CC4)C3)nc(Sc3ccc4nc(C(F)(F)F)[nH]c4c3)n2)[nH]n1 [Compound 202] | ≤ 0.05 | –
Cc1cc(Nc2cc(N3CC(F)(C4CC4)C3)nc(Sc3ccc(N)cc3)n2)[nH]n1 [Compound 209] | ≤ 0.05 | –
